Reference: patent US20260176313A1, “TGF-BETA-1 VACCINE” (IO BIOTECH APS, priority 2022, published 2026)

Assays:
[1] = test system: PBMCs from healthy donors; test: In vitro IFNγ ELISPOT screening for immune responses to TGFb-1 peptides; format: cell-based, human; conditions: for Positive Donors (out of 14): donors with significant response: Fisher test <0.01, ratio peptide:control >2, background subtracted spots >25; for Median Spots: median of background subtracted average spots for each donor across all 14 donors, 7 days after peptide stimulation
Method: FIG. 6. IFNγ ELISPOT identifies strong and frequent immune responses. Immune responses to TGFb-1 peptides were identified in PBMCs from 14 healthy donors. PBMCs were stimulated with the indicated TGFb-1 peptides and responses were analyzed after seven days by IFNγ ELISPOT. Significant responses (*) were defined by a Fisher exact P value<0.01, a ratio of peptide to control spots>2, and background subtracted spots>25. Peptides that elicited responses in the greatest number of donors were subsequently tested for the specificity of the response to TGFb-1.
(§1) For in vitro ELISPOT, peripheral blood […] cells (PBMCs) from healthy donors were pulsed with 20 μM of TGFb-derived peptides and 20 U/ml IL-2 in 24-well plates for 7 days before being used in an ELISPOT assay. The cells were placed in 96-well nitrocellulose ELISPOT plates (MultiScreen IP Filter Plate, MSIPN4W50; Millipore) pre-coated with interferon gamma (IFNγ) capture antibody (Mabtech). TGFb peptides are added to a final concentration of 5 μM, control stimulation (DMSO) added to control wells and plates are incubated at 37° C. for 16-20 hours. After the incubation the cells were washed off and secondary biotinylated Ab (Mabtech) was added for 2 hours at room temperature. Unbound secondary antibody was washed off and streptavidin conjugated alkaline phosphatase (AP) (Mabtech) was added for 1 hour at room temperature. Unbound conjugated enzyme was washed off and the assay was developed by adding BCIP/NBT substrate (Mabtech). Developed ELISPOT plates were analysed on CTL ImmunoSpot S6 Ultimate-V analyzer using Immunospot software v5.1.
(§2) In order to identify whether the low homology peptides selected based on sequence alignment were able to elicit immune responses in humans, the IFNγ ELISPOT assay was used. PBMCs from a total of 14 healthy donors were used to screen for immune responses. PBMCs were exposed to each peptide individually to induce a peptide-specific immune response and proliferation of peptide-specific T cells. Seven days later, the frequency of peptide-specific T cells were assayed by IFNγ ELISPOT. IFNγ ELISPOT identified several peptides that elicited strong (number of spots) and frequent (number of donors) immune responses, as shown in FIG. 6. Five peptides were selected on this basis (see Table 4). These five peptides were subsequently assayed for TGFb-1-selectivity by assaying for cross-reactive immune responses to TGFb-2 and TGFb-3 peptides in the IFNγ ELISPOT assay, as shown in FIG. 7 and FIG. 8.

[2] = test system: PBMCs from healthy donors; test: IFNγ ELISPOT recall assay for cross-reactive responses to homologous TGFb-2 and TGFb-3 peptides; format: cell-based, human; conditions: for TGFb-1 selectivity / cross-reactivity of IFNγ ELISPOT immune response to homologous TGFb-2 and TGFb-3 peptides: donor PBMCs stimulated with TGFb-1 peptide, recall after seven days
Method: FIG. 7A-B. IFNγ ELISPOT to identify TGFb-1-selective immune responses. Donor PBMCs were stimulated with the indicated TGFb-1 peptides (Pep01-1, Pep04-1, Pep05-1, Pep08-1, Pep09-1 and Pep12-1) and after seven days were tested for a recall response by IFNγ ELISPOT assay using the same TGFb-1 peptide, or homologous TGFb-2 peptide (i.e. Pep01-2, Pep04-2, Pep05-2, Pep08-2, Pep09-2 or Pep12-2) or TGFb-3 peptide (i.e. Pep01-3, Pep04-3, Pep05-3, Pep08-3, Pep09-3 or Pep12-3). The highly homologous peptides Pep12-1, Pep12-2 and Pep12-3 were included as positive controls for detecting cross-reactive immune responses to TGFb-2 and TGFb-3. In FIG. 7A, for each peptide tested, boxplots on the left hand side correspond to responses using the same TGFb-1 peptide, boxplots in the middle correspond to responses using homologous TGFb-2 peptides and boxplots on the right hand side correspond to responses using homologous TGFb-3 peptides.
FIG. 8. IFNγ ELISPOT to identify TGFb-1-selective immune responses. The same data shown in FIG. 7 were plotted to show responses for individual peptides and donors. […] Significant responses (*) were defined by a Fisher exact P value<0.01, a ratio of peptide to control spots>2, and background subtracted spots>25.
as §1, §2

[3] = test system: mice; test: IFNγ ELISPOT assay of immune responses in mice vaccinated with synthetic long peptides; format: in vivo, mouse; conditions: mice vaccinated with SLP; recall with minimal class I / class II peptides
Method: FIG. 9. TGFb-1 vaccine induces robust immune responses. Mice were vaccinated with two different synthetic long peptides (SLPs) and immune responses were analyzed by IFNγ ELISPOT assay. ELISPOT responses for individual mice are shown. Results for control peptides are clearly indicated.
For the MC38 tumor study, female C56/BL6 mice (Tacomic) were vaccinated with 100 μg of peptide (SEQ ID: 31 or SEQ ID NO: 34) prepared in DMSO and diluted in water to a total volume of 50 μl (per injection) before mixing with an equal volume of Montanide ISA51 VG ST adjuvant to form an emulsion. The vaccine formulation was administered subcutaneously (s.c.) at the tail base on Days 0, 7, and 14. MC38 tumor cells (2e5 per injection) were administered s.c. in the flank on day 0. Every 3 to 4 days, tumors were measured with a Vernier caliper and the tumor volume was calculated using the formula: V=L×W2/2, where V is tumor volume, L is the length of tumor (longer axis), and W is the width of the tumor (shorter axis).
A murine TGFb-1 vaccine was developed based on synthetic long peptides (SLPs) encoding predicted MHC class I and class II epitopes (SEQ ID NOs: 31-36 in Table 1 below). Pre-clinical studies of anti-TGFb therapies often fail to show any impact on tumor growth when administered as a monotherapy.

[4] = test system: splenocytes loaded with the assay peptide (SLP1_Ib); test: In vivo cytotoxicity assay; parameters: species or system mouse; conditions: analysed 18 hours after i.v. injection of labeled splenocytes
Method: FIG. 11. TGFb-1 vaccine promotes targeted in vivo cell killing. An in vivo cytotoxicity assay was used to compare cell killing in mice vaccinated with SLP1 versus the class I epitope SLP1_Ib (SIYMFFNT). Vaccinated mice (duplicates) were injected with differentially labeled splenocytes loaded with the assay peptide (SLP1_Ib) or a control peptide. Cell killing was determined by comparing the recovery of the splenocytes using control-peptide-loaded splenocytes as an internal control for cell recovery. OVA peptide was included as a positive control.
The in vivo cytotoxicity assay was performed by injecting peptide-loaded splenocytes from untreated donor mice into vaccinated mice. Freshly isolated splenocytes were incubated with 5 μM peptide in media (RPMI, 10% Fetal Bovine Serum) for 1 hour at 37 C. Splencoytes were loaded with assay peptide (SLP1_Ib) or control peptide (P53, AIYKKSQHM) separately. […] Cell killing was analyzed after 18 hours by isolating splenocytes from injected mice and comparing the recovery of FarRed and Violet labeled cells by flow cytometry. Specific killing of assay pulsed splenocytes was calculated as follows: […]

DINGFTTGRRGDLATIHGMNRPFLLL [Pep07-1, polypeptide fragment of human TGFb-1, positions 235-260]
Positive Donors (out of 14) [1]: 5 | Median Spots [1]: 12

DMPPFFPSENAIPPTFYRPYFRIVREDVSAMEKNASNLV (DMPPFFPSENAIPPTFYRPYFRIVRFDVSAMEKNASNLV) [Pep01-2, homologous polypeptide fragment of human TGFb-2, positions 107-145, reference compound]
TGFb-1 selectivity / cross-reactivity of IFNγ ELISPOT immune response to homologous TGFb-2 and TGFb-3 peptides [2]: observed only once | Number of other donors in which cross reactivity was not observed ([2]; donors tested with Pep01-1/Pep01-2 peptide combination): 7

DSRDNTLQVDINGFTTGRRGDLATIHGMNRPFLLL [Pep06-1, polypeptide fragment of human TGFb-1, positions 226-260]
Positive Donors (out of 14) [1]: 5 | Median Spots [1]: 25

KDISHSIYMFFNTSDIREAVPEPPL [SLP1]
Immune response by IFNγ ELISPOT in vaccinated mice [3]: recognition of minimal peptides encoding class I and class II epitopes | Cytotoxic activity (specific killing) toward SLP1_Ib-loaded splenocytes in vaccinated mice [4]: results in cytotoxic activity toward cells loaded with the class I peptide antigen SLP1_Ib

LMVETHNEIYDKFKQSTHSIYMFF [Pep03-1, polypeptide fragment of human TGFb-1, positions 112-135]
Positive Donors (out of 14) [1]: 6 | Median Spots [1]: 16

LMVETHNEIYDKFKQSTHSIYMFFNTSEL [Pep02-1, polypeptide fragment of human TGFb-1, positions 112-140]
Positive Donors (out of 14) [1]: 6 | Median Spots [1]: 28

LMVETHNEIYDKFKQSTHSIYMFFNTSELREAVPEPVLLS [Pep01-1, polypeptide fragment of human TGFb-1, positions 112-151]
Positive Donors (out of 14) [1]: 9 | Median Spots [1]: 67 | TGFb-1 selectivity / cross-reactivity of IFNγ ELISPOT immune response to homologous TGFb-2 and TGFb-3 peptides [2]: strong and frequent immune responses in healthy donors that are selective to TGFb-1

REAVPEPVLLSRAELRLLRL [Pep09-1, polypeptide fragment of human TGFb-1, positions 141-160]
Positive Donors (out of 14) [1]: 7 | Median Spots [1]: 37 | TGFb-1 selectivity / cross-reactivity of IFNγ ELISPOT immune response to homologous TGFb-2 and TGFb-3 peptides [2]: strong and frequent immune responses in healthy donors that are selective to TGFb-1

REAVPEPVLLSRAELRLLRLKLKVEQHVE [Pep11-1, polypeptide fragment of human TGFb-1, positions 141-169]
Positive Donors (out of 14) [1]: 5 | Median Spots [1]: 14

SIYMFFNT [SLP1_Ib, TGFb-1 positions 130-137]
Cytotoxic activity (specific killing) toward SLP1_Ib-loaded splenocytes in vaccinated mice [4]: cytotoxic activity was higher

TGRRGDLATIHGMNRPFLLL [Pep08-1, polypeptide fragment of human TGFb-1, positions 241-260]
Positive Donors (out of 14) [1]: 7 | Median Spots [1]: 22 | TGFb-1 selectivity / cross-reactivity of IFNγ ELISPOT immune response to homologous TGFb-2 and TGFb-3 peptides [2]: strong and frequent immune responses in healthy donors that are selective to TGFb-1

VKRKRIEAIRGQILSKLRLA [Pep12-1, reference compound]
TGFb-1 selectivity / cross-reactivity of IFNγ ELISPOT immune response to homologous TGFb-2 and TGFb-3 peptides [2]: induced immune responses that cross-reacted with homologous TGFb-2 and TGFb-3 peptides | TGFb-1 selectivity / cross-reactivity of IFNγ ELISPOT immune response to homologous TGFb-2 and TGFb-3 peptides ([2]; listed as Pep12): displayed cross-reactivity in all donors that exhibited significant responses to the TGFb-1 homolog

YDKFKQSTHSIYMFFNTSEL [Pep05-1, polypeptide fragment of human TGFb-1, positions 121-140]
Positive Donors (out of 14) [1]: 7 | Median Spots [1]: 23 | TGFb-1 selectivity / cross-reactivity of IFNγ ELISPOT immune response to homologous TGFb-2 and TGFb-3 peptides [2]: strong and frequent immune responses in healthy donors that are selective to TGFb-1

YDKFKQSTHSIYMFFNTSELREAVPEPVLLS [Pep04-1, polypeptide fragment of human TGFb-1, positions 121-151]
Positive Donors (out of 14) [1]: 7 | Median Spots [1]: 34 | TGFb-1 selectivity / cross-reactivity of IFNγ ELISPOT immune response to homologous TGFb-2 and TGFb-3 peptides [2]: strong and frequent immune responses in healthy donors that are selective to TGFb-1

YMFFNTSELREAVPEPVLLSRAELRLLRLKLKVEQHVE [Pep10-1, polypeptide fragment of human TGFb-1, positions 132-169]
Positive Donors (out of 14) [1]: 5 | Median Spots [1]: 8
